Structures are written as SMILES.

In general, inhibition refers to the drop in the measured response relative to a control, in per cent.

The target of this experiment is Methionine--tRNA ligase, mitochondrial (Homo sapiens) (UniProt Q96GW9). Kind of experiment: inhibition of human MARS2 tRNA charging – biochemical, radioactivity, [3H]methionine, two concentrations, counter-screen for T. brucei MetRS inhibitor project, late-stage follow-up (AID 720620). Conditions: recombinant human mitochondrial MetRS, [3H]Met-tRNA charging, 60 min; inhibition; at 1 µM; stronger effect = higher value.
Methionine--tRNA ligase, mitochondrial (Homo sapiens), sequence (Q96GW9 whole entry, looked up): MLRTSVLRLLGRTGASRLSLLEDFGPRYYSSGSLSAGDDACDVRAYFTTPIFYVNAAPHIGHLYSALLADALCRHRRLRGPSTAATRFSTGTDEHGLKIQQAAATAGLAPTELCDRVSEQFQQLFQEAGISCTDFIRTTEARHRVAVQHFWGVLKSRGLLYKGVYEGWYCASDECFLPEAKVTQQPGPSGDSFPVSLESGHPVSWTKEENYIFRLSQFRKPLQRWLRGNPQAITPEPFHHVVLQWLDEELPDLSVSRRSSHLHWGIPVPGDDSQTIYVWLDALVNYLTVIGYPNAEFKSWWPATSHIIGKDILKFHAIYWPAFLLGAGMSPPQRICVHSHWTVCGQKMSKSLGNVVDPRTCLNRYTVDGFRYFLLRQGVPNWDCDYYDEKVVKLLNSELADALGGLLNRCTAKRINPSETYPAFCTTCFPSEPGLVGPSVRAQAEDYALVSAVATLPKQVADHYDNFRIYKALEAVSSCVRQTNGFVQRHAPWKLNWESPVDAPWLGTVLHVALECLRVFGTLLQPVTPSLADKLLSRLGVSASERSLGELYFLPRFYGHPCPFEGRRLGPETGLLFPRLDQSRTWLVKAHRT
Consider `CC(C)(C)[C@@H]1C=C(C(=O)NCc2nc3ccccc3[nH]2)O[C@H](OCc2ccc(CO)cc2)C1`, for which the inhibition is -10.6%.
Take `COc1ccccc1-n1c(SCC(=O)Nc2ccc(Cl)cc2)nc(O)c(Cc2ccccc2)c1=O`: the inhibition is -31.6%.
Take `O=C(C[C@H]1C(=O)N(Cc2ccccc2)C[C@@H]1c1ccc(Br)cc1)Nc1ccc(Br)cc1`: the inhibition was -13%.
As for `O=C(CC(=O)Nc1cccc(Cl)c1)NN=Cc1ccccc1`, the inhibition was -18.3%.
Consider `O=C1[C@@H]2Cc3c([nH]c4ccccc34)C(c3cccc([N+](=O)[O-])c3)N2C(=O)CN1CCCO` (some centres undefined), for which the inhibition is -17.4%.
As for `O=C(NCc1nc2ccccc2[nH]1)C1=C[C@@H](C2CC2)C[C@@H](OCc2ccc(CO)cc2)O1`, the inhibition is -11.4%.
Next, `CN(Cc1cc(Cl)cc(Cl)c1)[C@H]1C[C@H]2c3[nH]c4ccccc4c3CCN2C(=O)[C@H]1CO`: 14%; `Clc1ccc(-c2nnc(SCc3nc4ccccc4[nH]3)o2)c(Cl)c1`: -3.17%; `O=C(Nc1ccc(F)c(Cl)c1)C1CC(=O)n2c(nc3ccccc32)N1` (centres undefined): -11.1%.
In the case of `CN1CC(=O)N2C(c3cccc([N+](=O)[O-])c3)c3[nH]c4ccccc4c3C[C@H]2C1=O` (some centres undefined) it was -17.1%; in that of `CC(=O)c1ccc(N2CCN(C(=O)CCCn3c(=O)[nH]c4ccc(Br)cc4c3=O)CC2)cc1`, -14.1%; in that of `COc1ccc(OCC(O)CNC(=O)Nc2ccc(Cl)cc2)cc1` (centres undefined), -6.26%.
In the case of `O=C1CC(SCc2nc3ccccc3[nH]2)C(=O)N1c1cccc(Cl)c1` (centres undefined), the inhibition was -4.5%.
In the case of `CCO[C@@H]1OC(C(=O)NCc2nc3ccccc3[nH]2)=C[C@H](c2ccc(Br)cc2)[C@H]1CCCO` it was -4.89%.
In the case of `O=C(Cn1cc(C(=O)C(=O)N2CCOCC2)c2ccccc21)Nc1cccc(C(F)(F)F)c1` it was -22.4%.
Next, `O=C(NCc1nc2ccccc2[nH]1)C1=C[C@H](c2csc3ccccc23)C[C@H](OCCCCO)O1`: -9.21%; `CC(=O)c1c[nH]c(C(=O)NCc2cccc(C(F)(F)F)c2)c1`: -7.99%.
Turning to `Brc1cnc2nc(SCc3nc4ccccc4[nH]3)[nH]c2c1`, the inhibition is -21.5%.
As to `COc1cccc(NC(=O)CSc2nnc3c(n2)[nH]c2ccc(C)cc23)c1`, the inhibition worked out at 49.7%.
In the case of `O=C(NCc1nc2ccccc2[nH]1)C1=C[C@H](c2ccc(Br)cc2)C[C@H](OCc2ccc(CO)cc2)O1`, the inhibition was determined as 0.59%.
In the case of `O=C(NCc1nc2ccccc2[nH]1)C1=C[C@@H](c2ccc(Br)cc2)C[C@@H](OCc2ccc(CO)cc2)O1` it was -11.6%; in that of `O=C(Cn1cnc2ccccc21)Nc1cccc([N+](=O)[O-])c1`, -15.4%; in that of `COc1ccc(CNC(=O)CSc2nnc3c(n2)[nH]c2ccc(F)cc23)cc1`, -29.7%.
In the case of `O=C(NCc1nc2ccccc2[nH]1)C1=C[C@H](C2CC2)C[C@H](OCc2ccc(CO)cc2)O1` it was 7.99%; in that of `O=C(N/C(=C\c1cccnc1)c1nc2ccccc2[nH]1)c1cccc(Br)c1`, -19.7%.
Next, `CC(C)(C)[C@H]1C=C(C(=O)NCc2nc3ccccc3[nH]2)O[C@@H](OCc2ccc(CO)cc2)C1`: -20.5%.
For the compound `O=C(NNC(=O)c1cc(-c2ccc(Cl)c(Cl)c2)nc2ccccc12)Nc1ccccc1`, the inhibition is -17.1%.
In the case of `COc1ccc2[nH]c3nc(SCC(=O)Nc4ccc5c(c4)OCO5)nnc3c2c1` it was 14.3%; in that of `O=C(CC=NOCc1ccc([N+](=O)[O-])cc1)Nc1ccc(Br)cc1`, -22.4%.
In the case of `O=C(NCc1nc2ccccc2[nH]1)C1=C[C@@H](c2ccc(Br)cc2)C[C@@H](OCCCCO)O1` it was -9.46%; in that of `O=C(CN1CCSC1=NCc1ccccc1)c1ccc(Cl)c(Cl)c1`, -25.1%.
With `CC(C)OCCCN1CC(=O)N2C(c3cccc([N+](=O)[O-])c3)c3[nH]c4ccccc4c3C[C@H]2C1=O` (some centres undefined), the inhibition is -24.2%.
Turning to `O=C(CC=NOCc1ccc([N+](=O)[O-])cc1)Nc1ccc(Cl)cc1`, the inhibition is -13%.
Next, `O=C(NCc1nc2ccccc2[nH]1)C1=C[C@H](c2ccc3c(c2)OCO3)C[C@H](OCCCCO)O1`: -10.7%.
Turning to `O=C(NCc1nc2ccccc2[nH]1)C1=C[C@@H](c2ccccc2)C[C@@H](OCc2ccc(CO)cc2)O1`, the inhibition is -16.8%.
In the case of `Cc1[nH]c2ccc(Br)cc2c(=O)c1CN1CCCCCC1` it was -31.2%; in that of `Cc1ccc(NC(=O)CN(C)C(=O)CCSc2ccc(F)cc2)cc1`, -35.7%.
In the case of `O=C(NCCc1nc2ccccc2[nH]1)c1ccc(Cl)c([N+](=O)[O-])c1` it was 2.97%; in that of `CCO[C@H]1OC(C(=O)NCc2nc3ccccc3[nH]2)=C[C@@H](c2ccc(Br)cc2)[C@@H]1CCCO`, -15%; in that of `Oc1c(Cl)cc(Cl)cc1CNc1nc2ccccc2[nH]1`, -0.2%.
Take `CCCCCCCCCC1NC(C(=O)O)Cc2c1[nH]c1ccccc21` (centres undefined): the inhibition is -2.41%.
Next, `C[C@H](O)[C@@H]1C(=O)N2CCc3c([nH]c4ccccc34)[C@@H]2C[C@@H]1N(C)Cc1ccc2c(c1)OCO2`: -17.7%; `O=C(NCc1nc2ccccc2[nH]1)C1=C[C@@H](c2csc3ccccc23)C[C@@H](OCCCCO)O1`: -15%.
As for `CC(CC(=O)Nc1cccc(Br)c1)=NNC(=O)c1ccc(O)cc1O`, the inhibition was -24.6%.
Next, `O=C(NCc1nc2ccccc2[nH]1)C1=C[C@H](c2ccc(Br)cc2)C[C@H](OCCCCO)O1`: -6.37%; `CCOC(=O)N1CCC(Nc2c(Nc3ccc(F)cc3)c(=O)c2=O)CC1`: -8.53%.
Next, `O=C1CC(N(CCc2ccccc2)C(=S)Nc2ccccc2)C(=O)N1c1ccc(Br)cc1` (centres undefined): -25.5%.
Next, `CN(CC(=O)Nc1ccc(Cl)cc1)C(=O)c1ccc(-n2cncn2)c([N+](=O)[O-])c1`: -36.7%.
Take `COc1ccccc1NS(=O)(=O)c1cccc(NC(=O)Nc2ccccc2)c1`: the inhibition is -9.69%.
Next, `O=C(NCc1nc2ccccc2[nH]1)C1=C[C@H](c2ccccc2)C[C@H](OCc2ccc(CO)cc2)O1`: -8.08%; `O=C(NNC(=O)c1ccc(-n2cncn2)c([N+](=O)[O-])c1)c1ccc(Cl)cc1`: -30.3%.
In the case of `Clc1ccc(OCCSCc2nc3ccccc3[nH]2)cc1` it was -20%.
In the case of `O=C(CCC(=O)Nc1cccc([N+](=O)[O-])c1)NN=Cc1cccs1` it was -28.9%.
In the case of `O=C(NCc1nc2ccccc2[nH]1)C1=C[C@@H](c2ccc3c(c2)OCO3)C[C@@H](OCCCCO)O1`, the inhibition is -3.63%.

The values above are taken from PubChem BioAssay AID720620 (The Scripps Research Institute Molecular Screening Center, 2013).
